Values after ≈ are worked out from the molar mass of the structure shown.
What was measured:
Streptococcus pyogenes = test: Antimicrobial activity against Streptococcus pyogenes Msr 610 expressing erm(B) gene by NCCLS method; type: functional
Enterococcus faecalis = test: Antimicrobial activity against linezolid-resistant Enterococcus faecalis P5 by NCCLS method; type: functional
Streptococcus pneumoniae = test: Antimicrobial activity against Streptococcus pneumoniae 02J1175 expressing mef(A) gene by NCCLS method; type: functional
Escherichia coli [1] = test: Inhibition of protein synthesis in Escherichia coli by translation assay
Haemophilus influenzae [2] = test: Antimicrobial activity against Haemophilus influenzae 895 (AcrB-KO) by NCCLS method; type: functional
Haemophilus influenzae [3] = test: Antimicrobial activity against Haemophilus influenzae RD1 by NCCLS method; type: functional
Escherichia coli [4] = test: Inhibition of protein synthesis in Escherichia coli S30 extract by translation assay; type: functional

SMILES | MIC (Streptococcus pyogenes) [µg/mL] | MIC (Enterococcus faecalis) [µg/mL] | MIC (Streptococcus pneumoniae) [µg/mL] | IC50 (Escherichia coli [1]) [nM] | MIC (Haemophilus influenzae [2]) [µg/mL] | MIC (Haemophilus influenzae [3]) [µg/mL] | IC50 (Escherichia coli [4]) [nM]
CC(=O)NC[C@H]1CN(c2ccc(/C=C/CCCNC(=O)CCc3cccnc3)c(F)c2)C(=O)O1 | 2 (≈ 4.27 µM) | 32 (≈ 68.3 µM) | 2 (≈ 4.27 µM) | 16000 | 8 (≈ 17.1 µM) | > 128 | –
CC(=O)NC[C@H]1CN(c2ccc(-c3ccc(CNC(=O)CCc4cccnc4)cc3)c(F)c2)C(=O)O1 | 0.5 (≈ 1.02 µM) | 16 (≈ 32.6 µM) | 0.5 (≈ 1.02 µM) | 580 | 2 (≈ 4.08 µM) | > 128 | –
CC(=O)NC[C@H]1CN(c2ccc(N3CCC(CNC(=O)/C=C/c4c(C)[nH]c(=O)[nH]c4=O)CC3)c(F)c2)C(=O)O1 | 4 (≈ 7.37 µM) | – | 4 (≈ 7.37 µM) | – | 8 (≈ 14.7 µM) | > 128 | 260
CC(=O)NC[C@H]1CN(c2ccc(-c3ccc(CNC(=O)/C=C/c4c(C)[nH]c(=O)[nH]c4=O)cc3)c(F)c2)C(=O)O1 | ≤ 0.25 | 16 (≈ 29.9 µM) | ≤ 0.25 | 30 | ≤ 0.25 | > 128 | –
CC(=O)NC[C@H]1CN(c2ccc(/C=C/CCCNC(=O)/C=C/c3c(C)[nH]c(=O)[nH]c3=O)c(F)c2)C(=O)O1 | 1 (≈ 1.95 µM) | 32 (≈ 62.3 µM) | 1 (≈ 1.95 µM) | 30 | 1 (≈ 1.95 µM) | > 128 | –
CC(=O)NC[C@H]1CN(c2ccc(N3CCOCC3)c(F)c2)C(=O)O1 [LINEZOLID] | 1 (≈ 2.96 µM) | 32 (≈ 94.9 µM) | – | – | 8 (≈ 23.7 µM) | 16 (≈ 47.4 µM) | –
CSC[S@@+]([O-])CC(CO)NC(=O)/C=C/c1c(C)[nH]c(=O)[nH]c1=O (some centres undefined) [SPARSOMYCIN] | 2 (≈ 5.53 µM) | > 128 | 2 (≈ 5.53 µM) | ≤ 20 | 8 (≈ 22.1 µM) | 8 (≈ 22.1 µM) | –
